This assay has as its target Vascular endothelial growth factor receptor 2 (Homo sapiens, UniProt P35968). Kind of assay: Inhibition Assay: The object of this assay was to test the inventive compounds for the kinase inhibitory activity in vitro. In this assay, an isotopic labeling method was used to label the gamma phosphate group on ATP. EGFR (including wild type, L858R mutant type and L858R/T790M double mutant type), VEGFR2, ALK, BTK, c-KIT, c-SRC, MET, PDGFRalpha and FLT3 kinases were tested in vitro for the activity inhibition. Staurosporine was used as a reference molecule (or referred to as a positive control). […] The IC50 value can be obtained by the calculation of the inhibitory rates at a series of different concentrations of the tested compounds. 1. Materials: 20mM 3-(N-morpholinyl)propylsulfonic acid (MOPS); 1mM Ethylenediaminetetraacetic acid (EDTA); 0.01% Polyethylene glycol lauryl ether (Brij-35).

Sequence of Vascular endothelial growth factor receptor 2 (P35968 20-1356 limits assumed, stated change not applied): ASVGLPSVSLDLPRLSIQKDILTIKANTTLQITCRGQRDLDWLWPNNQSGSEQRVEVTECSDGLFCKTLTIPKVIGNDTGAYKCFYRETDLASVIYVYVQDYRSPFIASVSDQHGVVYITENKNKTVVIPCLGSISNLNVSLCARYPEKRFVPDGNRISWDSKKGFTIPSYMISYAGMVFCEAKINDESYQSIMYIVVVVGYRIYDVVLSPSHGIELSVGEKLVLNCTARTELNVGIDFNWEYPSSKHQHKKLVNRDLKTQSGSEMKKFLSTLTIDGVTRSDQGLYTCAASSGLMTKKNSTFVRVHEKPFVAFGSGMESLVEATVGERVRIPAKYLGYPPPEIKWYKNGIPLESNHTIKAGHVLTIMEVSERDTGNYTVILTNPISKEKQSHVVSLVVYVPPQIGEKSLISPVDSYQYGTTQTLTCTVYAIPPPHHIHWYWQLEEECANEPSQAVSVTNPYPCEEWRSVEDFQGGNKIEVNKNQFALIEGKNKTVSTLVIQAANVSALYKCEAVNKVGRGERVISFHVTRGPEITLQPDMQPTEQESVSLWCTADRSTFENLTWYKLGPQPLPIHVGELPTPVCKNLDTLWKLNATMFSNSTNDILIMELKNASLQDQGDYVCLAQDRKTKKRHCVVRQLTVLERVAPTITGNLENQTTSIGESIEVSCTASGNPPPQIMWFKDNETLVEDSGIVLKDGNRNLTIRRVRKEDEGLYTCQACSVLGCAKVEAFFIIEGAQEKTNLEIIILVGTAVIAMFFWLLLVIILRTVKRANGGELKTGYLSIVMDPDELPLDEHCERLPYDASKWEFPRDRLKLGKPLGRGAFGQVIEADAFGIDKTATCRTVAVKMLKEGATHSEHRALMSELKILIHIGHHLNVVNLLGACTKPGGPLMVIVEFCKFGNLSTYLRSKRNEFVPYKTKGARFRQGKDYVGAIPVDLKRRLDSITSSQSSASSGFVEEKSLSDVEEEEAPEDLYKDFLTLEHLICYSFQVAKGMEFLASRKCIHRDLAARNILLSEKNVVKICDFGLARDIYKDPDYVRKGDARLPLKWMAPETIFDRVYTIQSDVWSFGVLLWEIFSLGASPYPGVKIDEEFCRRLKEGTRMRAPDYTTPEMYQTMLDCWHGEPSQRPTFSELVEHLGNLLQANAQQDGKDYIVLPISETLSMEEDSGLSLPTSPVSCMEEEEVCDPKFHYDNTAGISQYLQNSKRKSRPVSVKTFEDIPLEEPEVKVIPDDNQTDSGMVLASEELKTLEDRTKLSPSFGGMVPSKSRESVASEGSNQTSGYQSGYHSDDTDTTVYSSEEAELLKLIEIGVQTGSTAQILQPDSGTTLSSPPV

As usually defined, the IC50 is the point on the concentration scale where inhibition reaches its midpoint. In the case of `CC(C)n1c(Nc2ccccc2)nc2cnc(Nc3ccc(C(=O)NN4CCN(C)CC4)cc3F)nc21`, the half-inhibitory concentration (IC50) was more than 1000 nM.

These data come from ChEMBL document CHEMBL3638579, “Arylamino purine derivatives, preparation method and pharmaceutical use thereof” (2015).
